Among the data in the supplement of paper PMC12137928 are IC50 cell viability values, retold here.

This assay has as its system HCT116. To be noted: 72 h. Put shortly: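 Each well of the 1536-well plates received 250 HCT116 cells, which attached over 5 h. Luminescence was measured with CellTiter-Glo, scaled with vehicle as 0% and positive control as -100%, and pattern-corrected. A four-parameter Hill fit yielded IC50 and maximal efficacy.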

Structures can show the parent of a compound that is named as a salt.

Consider `CCOc1nc2cccc(C(=O)OCc3oc(=O)oc3C)c2n1Cc1ccc(-c2ccccc2-c2noc(=O)[nH]2)cc1` [Azilsartan Medoxomil], for which the IC50 cell viability runs as follows: (ICRF193 0 nM) above 45.8 µM; (ICRF193 200 nM) above 45.8 µM.

Regarding `NS(=O)(=O)c1cc(-c2nnn[nH]2)c(NCc2cccs2)cc1Cl` [Azosemide], the IC50 cell viability reads like this: (ICRF193 0 nM) above 45.8 µM; (ICRF193 200 nM) above 45.8 µM.

For the molecule `C[C@H]1[C@H](NC(=O)/C(=N\OC(C)(C)C(=O)O)c2csc(N)n2)C(=O)N1S(=O)(=O)O` [Aztreonam], the IC50 cell viability (ICRF193 0 nM) is above 45.8 µM and the IC50 cell viability (ICRF193 200 nM) was above 45.8 µM.

As for `CCCCC(CC)COc1ccc(-c2nc(-c3ccc(OC)cc3)nc(-c3ccc(OCC(CC)CCCC)cc3O)n2)c(O)c1` (stereo not given) [BEMOTRIZINOL], the IC50 cell viability is above 45.8 µM (ICRF193 0 nM) and above 45.8 µM (ICRF193 200 nM).

On to `O=C(OCc1ccccc1)c1cccnc1` [BENZYL NICOTINATE], for which the IC50 cell viability is, setting by setting: (ICRF193 0 nM) above 45.8 µM; (ICRF193 200 nM) above 45.8 µM.

`O=C(OCCO)c1ccccc1O` [BETA-HYDROXYETHYL SALICYLATE]: the IC50 cell viability is, setting by setting: (ICRF193 0 nM) above 45.8 µM; (ICRF193 200 nM) above 45.8 µM.

For `CCC(=O)OCC(=O)[C@@]1(OC(=O)CC)[C@@H](C)C[C@H]2[C@@H]3CCC4=CC(=O)C=C[C@]4(C)[C@@]3(F)[C@@H](O)C[C@@]21C` [BETAMETHASONE 17,21-DIPROPIONATE], the IC50 cell viability by setting is: (ICRF193 0 nM) above 45.8 µM; (ICRF193 200 nM) above 45.8 µM.

Regarding `CCCCCCOC(=O)NC(=N)c1ccc(NCc2nc3cc(C(=O)N(CCC(=O)OCC)c4ccccn4)ccc3n2C)cc1` [BIBR-1048], the IC50 cell viability (ICRF193 0 nM) was above 45.8 µM and the IC50 cell viability (ICRF193 200 nM) is above 45.8 µM.

With `CC(O)(CS(=O)(=O)c1ccc(F)cc1)C(=O)Nc1ccc(C#N)c(C(F)(F)F)c1` (stereo not given) [BICALUTAMIDE], the IC50 cell viability (ICRF193 0 nM) is above 45.8 µM and the IC50 cell viability (ICRF193 200 nM) was above 45.8 µM.

For `CC1(C)C2CCC1(C)C(O)C2` (stereo not given) [BORNEOL], the IC50 cell viability was above 45.8 µM (ICRF193 0 nM) and above 45.8 µM (ICRF193 200 nM).

In the case of `CC(=O)OC1CC2CCC1(C)C2(C)C` (stereo not given) [BORNYL ACETATE], the IC50 cell viability was above 45.8 µM (ICRF193 0 nM) and above 45.8 µM (ICRF193 200 nM).

Take `CC(C)(C)NCC(O)COc1ccccc1C#N` (stereo not given) [BUNITROLOL]: the IC50 cell viability is, setting by setting: (ICRF193 0 nM) above 45.8 µM; (ICRF193 200 nM) above 45.8 µM.

Consider `CCOC(=O)OC(C)OC(=O)[C@@H]1N2C(=O)[C@@H](NC(=O)[C@H](N)c3ccccc3)[C@H]2SC1(C)C` (stereo not given in full) [Bacampicillin hydrochloride], for which the IC50 cell viability is above 45.8 µM (ICRF193 0 nM) and above 45.8 µM (ICRF193 200 nM).

As to `CC[C@H](C)[C@H](N)C1=N[C@H](C(=O)N[C@@H](CC(C)C)C(=O)N[C@H](CCC(=O)O)C(=O)N[C@H](C(=O)N[C@H]2CCCCNC(=O)[C@H](CC(N)=O)NC(=O)[C@@H](CC(=O)O)NC(=O)[C@H](Cc3cnc[nH]3)NC(=O)[C@@H](Cc3ccccc3)NC(=O)[C@H]([C@@H](C)CC)NC(=O)[C@@H](CCCN)NC2=O)[C@@H](C)CC)CS1` [Bacitracin], the IC50 cell viability by setting is: (ICRF193 0 nM) above 45.8 µM; (ICRF193 200 nM) above 45.8 µM.

Turning to `NCC(CC(=O)O)c1ccc(Cl)cc1` (stereo not given) [Baclofen], the IC50 cell viability by setting is: (ICRF193 0 nM) above 45.8 µM; (ICRF193 200 nM) above 45.8 µM.

`CNC1CCCN(c2c(F)cc3c(=O)c(C(=O)O)cn(C4CC4)c3c2OC)C1` (stereo not given) [Balofloxacin]: the IC50 cell viability is above 45.8 µM (ICRF193 0 nM) and above 45.8 µM (ICRF193 200 nM).

`O=C(O)CCNC(=O)c1ccc(/N=N/c2ccc(O)c(C(=O)O)c2)cc1` [Balsalazide disodium] had an IC50 cell viability (ICRF193 0 nM) above 45.8 µM and an IC50 cell viability (ICRF193 200 nM) above 45.8 µM.

`CN(C)C(=O)Oc1cc(OC(=O)N(C)C)cc(C(O)CNC(C)(C)C)c1` (stereo not given) [Bambuterol hydrochloride]: the IC50 cell viability reads like this: (ICRF193 0 nM) above 45.8 µM; (ICRF193 200 nM) above 45.8 µM.

In the case of `CCCCNCC(O)c1ccc(O)cc1` (stereo not given) [Bamethan], the IC50 cell viability is above 45.8 µM (ICRF193 0 nM) and above 45.8 µM (ICRF193 200 nM).

For `COc1nc2ccc(Br)cc2cc1[C@@H](c1ccccc1)[C@@](O)(CCN(C)C)c1cccc2ccccc12` [Bedaquiline (TMC-207)], the IC50 cell viability is, setting by setting: (ICRF193 0 nM) above 45.8 µM; (ICRF193 200 nM) above 45.8 µM.

Turning to `CC(=O)c1cc2cccc(OCC(O)CNC(C)C)c2o1` (stereo not given) [Befunolol], the IC50 cell viability runs as follows: (ICRF193 0 nM) above 45.8 µM; (ICRF193 200 nM) above 45.8 µM.

With `CCC1(C)CC(=O)NC(=O)C1` [Bemegride], the IC50 cell viability reads like this: (ICRF193 0 nM) above 45.8 µM; (ICRF193 200 nM) above 45.8 µM.

Consider `CCOC(=O)[C@H](CCc1ccccc1)N[C@H]1CCc2ccccc2N(CC(=O)O)C1=O` [Benazepril], for which the IC50 cell viability runs as follows: (ICRF193 0 nM) above 45.8 µM; (ICRF193 200 nM) above 45.8 µM.

Turning to `CN(C)CCCOC1(Cc2ccccc2)CCCCCC1` [Bencyclane], the IC50 cell viability is above 45.8 µM (ICRF193 0 nM) and above 45.8 µM (ICRF193 200 nM).

Regarding `Cn1c(CCCC(=O)O)nc2cc(N(CCCl)CCCl)ccc21` [Bendamustine], the IC50 cell viability by setting is: (ICRF193 0 nM) above 45.8 µM; (ICRF193 200 nM) above 45.8 µM.

In the case of `O=C(O)COc1nn(Cc2ccccc2)c2ccccc12` [Bendazac sodium], the IC50 cell viability by setting is: (ICRF193 0 nM) above 45.8 µM; (ICRF193 200 nM) above 45.8 µM.

In the case of `C/C(=C(\CCOP(=O)(O)O)SC(=O)c1ccccc1)N(C=O)Cc1cnc(C)nc1N` [Benfotiamine], the IC50 cell viability was above 45.8 µM (ICRF193 0 nM) and above 45.8 µM (ICRF193 200 nM).

`CC(=O)Nc1ccc(OC(=O)c2ccccc2OC(C)=O)cc1` [Benorylate]: the IC50 cell viability (ICRF193 0 nM) is above 45.8 µM and the IC50 cell viability (ICRF193 200 nM) is above 45.8 µM.

Regarding `CCCCOc1cc(C(=O)OCCN(CC)CC)ccc1N` [Benoxinate hydrochloride], the IC50 cell viability runs as follows: (ICRF193 0 nM) above 45.8 µM; (ICRF193 200 nM) above 45.8 µM.

Consider `O=C(CCCN1CCC(n2c(=O)[nH]c3ccccc32)CC1)c1ccc(F)cc1` [Benperidol], for which the IC50 cell viability (ICRF193 0 nM) was above 45.8 µM and the IC50 cell viability (ICRF193 200 nM) was above 45.8 µM.

Regarding `NC(CO)C(=O)NNCc1ccc(O)c(O)c1O` (stereo not given) [Benserazide], the IC50 cell viability by setting is: (ICRF193 0 nM) above 45.8 µM; (ICRF193 200 nM) above 45.8 µM.

Take `O=C(O)c1ccc(NC(=O)[C@H](Cc2ccc(O)cc2)NC(=O)c2ccccc2)cc1` [Bentiromide sodium]: the IC50 cell viability is above 45.8 µM (ICRF193 0 nM) and above 45.8 µM (ICRF193 200 nM).

With `CC[N+](C)(CC)CCOC(=O)C(O)(c1ccccc1)c1ccccc1` [Benzactyzine methobromide], the IC50 cell viability was above 45.8 µM (ICRF193 0 nM) and above 45.8 µM (ICRF193 200 nM).

Take `CCc1oc2ccccc2c1C(=O)c1cc(Br)c(O)c(Br)c1` [Benzbromarone]: the IC50 cell viability is, setting by setting: (ICRF193 0 nM) above 45.8 µM; (ICRF193 200 nM) above 45.8 µM.

For the molecule `O=S(=O)(O)c1ccccc1` [Benzene sulfonic acid], the IC50 cell viability is above 45.8 µM (ICRF193 0 nM) and above 45.8 µM (ICRF193 200 nM).

As for `O=C(Cn1ccnc1[N+](=O)[O-])NCc1ccccc1` [Benznidazole], the IC50 cell viability (ICRF193 0 nM) was above 45.8 µM and the IC50 cell viability (ICRF193 200 nM) is above 45.8 µM.

In the case of `CCOC(=O)c1ccc(N)cc1` [Benzocaine], the IC50 cell viability is above 45.8 µM (ICRF193 0 nM) and above 45.8 µM (ICRF193 200 nM).

In the case of `O=C(c1ccccc1)C(O)c1ccccc1` (stereo not given) [Benzoin], the IC50 cell viability was above 45.8 µM (ICRF193 0 nM) and above 45.8 µM (ICRF193 200 nM).

`CCCCNc1ccc(C(=O)OCCOCCOCCOCCOCCOCCOCCOCCOCCOC)cc1` [Benzonatate] gave an IC50 cell viability (ICRF193 0 nM) above 45.8 µM and an IC50 cell viability (ICRF193 200 nM) above 45.8 µM.

`c1ccc2scnc2c1` [Benzothiazole]: the IC50 cell viability is above 45.8 µM (ICRF193 0 nM) and above 45.8 µM (ICRF193 200 nM).

As for `O=C(OOC(=O)c1ccccc1)c1ccccc1` [Benzoyl peroxide], the IC50 cell viability is, setting by setting: (ICRF193 0 nM) above 45.8 µM; (ICRF193 200 nM) above 45.8 µM.

Consider `CN1[C@H]2CC[C@@H]1[C@@H](C(=O)O)[C@@H](OC(=O)c1ccccc1)C2` [Benzoylecgonine], for which the IC50 cell viability reads like this: (ICRF193 0 nM) above 45.8 µM; (ICRF193 200 nM) above 45.8 µM.

As for `CCN(CC)C(=O)C1CN2CCc3cc(OC)c(OC)cc3C2CC1OC(C)=O` (stereo not given) [Benzquinamide], the IC50 cell viability was above 45.8 µM (ICRF193 0 nM) and above 45.8 µM (ICRF193 200 nM).

In the case of `CN1[C@@H]2CC[C@H]1C[C@@H](OC(c1ccccc1)c1ccccc1)C2` [Benztropine mesylate], the IC50 cell viability runs as follows: (ICRF193 0 nM) above 45.8 µM; (ICRF193 200 nM) above 45.8 µM.

Turning to `CN(C)CCCOc1nn(Cc2ccccc2)c2ccccc12` [Benzydamine hydrochloride], the IC50 cell viability is above 45.8 µM (ICRF193 0 nM) and above 45.8 µM (ICRF193 200 nM).

The molecule `OCc1ccccc1` [Benzyl alcohol] registered an IC50 cell viability (ICRF193 0 nM) above 45.8 µM and an IC50 cell viability (ICRF193 200 nM) above 45.8 µM.

Consider `O=C(OCc1ccccc1)c1ccccc1` [Benzyl benzoate], for which the IC50 cell viability runs as follows: (ICRF193 0 nM) above 45.8 µM; (ICRF193 200 nM) above 45.8 µM.

Consider `O=C(/C=C/c1ccccc1)OCc1ccccc1` [Benzyl cinnamate], for which the IC50 cell viability by setting is: (ICRF193 0 nM) above 45.8 µM; (ICRF193 200 nM) above 45.8 µM.

Turning to `NS(=O)(=O)c1cc2c(cc1Cl)NC(Cc1ccccc1)NS2(=O)=O` (stereo not given) [Benzylhydrochlorothiazide], the IC50 cell viability is, setting by setting: (ICRF193 0 nM) above 45.8 µM; (ICRF193 200 nM) above 45.8 µM.

With `O=C(OCc1ccccc1)c1ccc(O)cc1` [Benzylparaben], the IC50 cell viability reads like this: (ICRF193 0 nM) above 45.8 µM; (ICRF193 200 nM) above 45.8 µM.

As for `O=C(O)CCCN1CCC(O[C@@H](c2ccc(Cl)cc2)c2ccccn2)CC1` [Bepotastine (Beslilate)], the IC50 cell viability reads like this: (ICRF193 0 nM) above 45.8 µM; (ICRF193 200 nM) above 45.8 µM.

In the case of `COc1c(O)cc2c(c1O)[C@@H]1O[C@H](CO)[C@@H](O)[C@H](O)[C@H]1OC2=O` [Bergenin monohydrate], the IC50 cell viability by setting is: (ICRF193 0 nM) above 45.8 µM; (ICRF193 200 nM) above 45.8 µM.

Take `N[C@@H]1CCCCN(c2c(F)cc3c(=O)c(C(=O)O)cn(C4CC4)c3c2Cl)C1` [Besifloxacin Hydrochloride]: the IC50 cell viability was above 45.8 µM (ICRF193 0 nM) and above 45.8 µM (ICRF193 200 nM).

On to `CNCCc1ccccn1` [Betahistine mesylate], for which the IC50 cell viability was above 45.8 µM (ICRF193 0 nM) and above 45.8 µM (ICRF193 200 nM).

`C[N+](C)(C)CC(=O)O` [Betaine] returned an IC50 cell viability (ICRF193 0 nM) above 45.8 µM and an IC50 cell viability (ICRF193 200 nM) above 45.8 µM.
